# Measurements published in PMC6205638, “Exploring natural genetic variation in tomato sucrose synthases on the basis of increased kinetic properties” (PLoS ONE, 2018).
# What was measured:
# SuSy3-haplotype#10 = test system: T1, SuSy3-haplotype#10; assay: sucrose cleavage; UDP-glucose quantified by UDP-glucose dehydrogenase / NADH; Michaelis-Menten fit; format: biochemical, Solanum neorickii; conditions: 4 mM UDP, 20 mM HEPES pH 7.5, 25 °C; IEX-purified only (lower purity)
# T1 construct: natural wild-species haplotype, full length (805 aa), in pDR195, expressed in Saccharomyces cerevisiae 22574d, IEX-purified only; equals S. lycopersicum SuSy3 haplotype#1 with S53A/S106I/Q349L/E727D/K741E (natural differences)
# Excerpt: sucrose cleavage; UDP-glucose quantified by UDP-glucose dehydrogenase / NADH; Michaelis-Menten fit on SuSy3-haplotype#10
# SuSy3-haplotype#9 = test system: T2, SuSy3-haplotype#9; assay: as above; format: biochemical, Solanum arcanum; conditions: 4 mM UDP, 20 mM HEPES pH 7.5, 25 °C; IMAC-purified
# T2 construct: natural wild-species haplotype, full length (805 aa), in pDR195, expressed in Saccharomyces cerevisiae 22574d, IEX- and IMAC-purified; equals S. lycopersicum SuSy3 haplotype#1 with S53A/S106I/E727D/K741E (natural differences)
# Excerpt: sucrose cleavage; UDP-glucose quantified by UDP-glucose dehydrogenase / NADH; Michaelis-Menten fit on SuSy3-haplotype#9
compound,measurement,setting,value
OC[C@H]1O[C@@](CO)(O[C@H]2O[C@H](CO)[C@@H](O)[C@H](O)[C@H]2O)[C@@H](O)[C@@H]1O [sucrose],Km,SuSy3-haplotype#10,58 ± 14 mM
same,Km,SuSy3-haplotype#9,33 ± 9 mM
